How the values were obtained:
[1] = tested on: hepatocellular carcinoma; experiment: Liver cancer case report, oral Simvastatin treatment; assay type: in vivo, human
Description: (§1) Its use according to this invention in the treatment of malignant disease consists of daily administration of an 80 mg tablet orally.
(§2) In order to avoid unforeseen side effects, the treatment is initiated at about 20 mg dose tablet once daily for one week. The dose then is increased to about 40 mg once daily for an additional week. The following week the dose is increased to about 60 mg and on the fourth week the dose is increased to about 80 mg (two tablets of 40 mg each), and to remain so indefinitely. The intervals for stepping up the dosage can vary.

[2] = tested on: metastatic colon cancer; experiment: Colon cancer case reports, oral Simvastatin treatment; assay type: in vivo, human; conditions: Case #1, 20 mg daily raised to 80 mg; over three to four months
Description: as §1, §2
Case #1: business person who underwent hemicolectomy for adenocarcinoma of the colon in 1993 was presented in 1995 to Cedars Sinai Medical Center Liver Team for possible cryotherapy. At that time they had multiple masses in both lobes of the liver as well as outside their liver and multiple nodules in both lungs. Clinically they were bedridden, weak and malnourished. They were rejected as a suitable candidate for needle cryotherapy because of their advanced disease, and was considered unrescuable with a life expectancy of several weeks.
The dose was increased by 20 mg increments every two weeks up to the dose of 80 mg. […] […] gained 27 pounds, became normally active, including extensive travel around the world.
Case #2: person underwent hemicolectomy for cancer of the colon in 1995 because of intestinal obstruction. […]

## CCC(C)(C)C(=O)O[C@H]1C[C@@H](C)C=C2C=C[C@H](C)[C@H](CC[C@@H]3C[C@@H](O)CC(=O)O3)[C@H]21 [Simvastatin]
[1]; patient, baseline above 55,000, started January 1999, value by April of 1999
  tumor marker alpha fetoprotein: less than 8
[1]; same patient, value in March 2000
  tumor marker alpha fetoprotein: 2.4
[2]
  weight gain: 27 pounds
